Source: patent publication US10058516B2, “Design, synthesis and methods of use of acyclic fleximer nucleoside analogues having anti-coronavirus activity” (priority 2015, dated 2018)
Read-outs that look alike come from different tables or passages of the source.

What was measured:
[1] = Cytotoxicity in Vero118 cells (NL63 assay, cell viability scored microscopically); details: African green monkey, Vero118 cells, CC50: Cytotoxic concentration showing 50% inhibition of cell survival, Vero118 (HCoV-NL63 assay)
HCoV-NL63 = test: NL63-CoV antiviral assay (CPE scored microscopically)
SARS-CoV or MERS-CoV = details: cited from earlier work
other viruses = details: cited from earlier work
coronavirus = coronavirus replication in vitro; cited from earlier work
[2] = tested on: MERS-CoV (strain EMC/2012); test: microbe, parasite or virus in culture; format: cell-based; details: for EC50: Middle East respiratory syndrome-related coronavirus, Huh-7, read-out: EC50: Effective concentration showing 50% inhibition of virus-induced CPE
in vitro = details: human
Vero118 cells = test: Cytotoxicity in Vero118 cells (NL63 assay, cell viability scored microscopically); details: read-out: CC50: Cytotoxic concentration showing 50% inhibition of cell survival; Vero118 (HCoV-NL63 assay)
[3] = tested on: MERS-CoV (strain EMC/2012); test: microbe, parasite or virus in culture; format: cell-based; details: Middle East respiratory syndrome-related coronavirus, Vero, read-out: EC50: Effective concentration showing 50% inhibition of virus-induced CPE
[4] = tested on: SARS-CoV (strain Frankfurt-1); test: microbe, parasite or virus in culture; details: Severe acute respiratory syndrome coronavirus
[5] = tested on: SARS-CoV (strain Frankfurt-1)
HIV-1 and HSV-2 = details: when McGuigan's ProTide technology was employed, cited from earlier work
Vero cells = details: African green monkey
Huh7 cells = details: human
VeroE6 cells = details: African green monkey
[6] = Human coronavirus NL63, read-out: EC50: Effective concentration showing 50% inhibition of virus-induced CPE, HCoV-NL63 in Vero118
[7] = Vero C1008, read-out: EC50: Effective concentration showing 50% inhibition of virus-induced CPE

Row | Compound | CC50 at 5 days [1] [µM] | EC50 (HCoV-NL63; [6]) [µM] | activity against SARS-CoV or MERS-CoV in vitro (SARS-CoV or MERS-CoV) | block the replication of MERS-CoV [2] | EC50 [2] [µM] | EC50 [3] [µM] | EC50 [4, 7] [µM] | other results
1 | OCCOCn1cnc(-c2cnc(O)nc2O)c1 [Compound 1, 5-(1-((2-hydroxyethoxy)methyl)-1H-imidazol-4-yl)pyrimidine-2,4-diol] | > 200 | 92 ± 68 | – | – | – | – | – | –
2 | Nc1nc(O)c2ncn(COC(CO)CO)c2n1 [ganciclovir] | – | – | none of these well-known antiviral drugs exhibited any activity | – | – | – | – | –
3 | NC(=O)c1ncn([C@@H]2O[C@H](CO)[C@@H](O)[C@H]2O)n1 [Ribavirin, ribavirin] | – | – | – | – | – | – | – | inhibitory concentration needed to inhibit other viruses (other viruses): 50 to 100 µg/mL; inhibitory concentration (coronavirus): 500 to 5000 µg/mL
4 | Nc1ncc(-c2cn(COCCO)cn2)c(O)n1 [Compound 3, 2-amino-5-(1-((2-hydroxyethoxy)methyl)-1H-imidazol-4-yl)pyrimidin-4(3H)-one] | > 200 | > 200 | – | – | – | – | – | –
5 | COc1nc(N)ncc1-c1cn(COCCO)cn1 [Compound 2, 2-((4-(2-amino-4-methoxypyrimidin-5-yl)-1H-imidazol-1-yl)methoxy)ethan-1-ol] | > 100 | < 10 | – | can block the replication of MERS-CoV | 13.5 | 10.1 ± 1.2 | 28.1 ± 0.2 | CC50 (in vitro): 54 ± 1.7 µM; CC50 (Vero118 cells): 120 ± 37 µM; selective antiviral activity (CC50>10×) (HCoV-NL63; HCoV-NL63 in Vero118, CC50 relative to EC50): > 10 ×; EC50 (HCoV-NL63; read-out: EC50: Effective concentration showing 50% inhibition of virus-induced CPE, HCoV-NL63 in Vero118): 8.8 ± 1.5 µM
6 | Cc1cn([C@H]2C[C@H](N=[N+]=[N-])[C@@H](CO)O2)c(=O)[nH]c1=O [zidovudine] | – | – | none of these well-known antiviral drugs exhibited any activity | – | – | – | – | –
7 | COc1nc(N)ncc1-c1cn(COCCOC(C)=O)cn1 [Compound 19, 2-((4-(2-amino-4-methoxypyrimidin-5-yl)-1H-imidazol-1-yl)methoxy)ethyl acetate] | – | – | – | can block the replication | 5.3 ± 0.7 | 3.4 ± 0.3 | 11.9 ± 0.2 | CC50 (in vitro): 23.4 ± 0.4 µM; CC50 as multiple of the EC50 [5]: ~3 times the EC50; block the replication of SARS-CoV [5]: can block the replication; EC50 ([4]; Vero C1008): < 12 µM
8 | Nc1nc2c(ncn2COCCO)c(=O)[nH]1 [Acyclovir, acyclovir, reference compound] | > 100 | > 100 | none of these well-known antiviral drugs exhibited any activity | had no effect | > 1000 | > 1000 | > 1000 | suppression of replication of both HIV-1 and HSV-2 (HIV-1 and HSV-2; CD4+ T cells): 3 to 12 µmol/L; suppression of replication of both HIV-1 and HSV-2 (HIV-1 and HSV-2; lymphoid and cervicovaginal human tissues): submicromolar range; CC50 (Vero cells): > 1000 µM; block the replication of SARS-CoV [5]: had no effect; CC50 (Huh7 cells): > 1000 µM; CC50 (VeroE6 cells): > 1000 µM
